Experimental findings from PubChem BioAssay AID540258 (Broad Institute, 2011) are described below.

The structures appear in SMILES notation. Activity calls are given as the source filed them.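 The calls were made as follows: active = fitted curve reaching 40% activation at or below the top valid dose tested; inconclusive = flat curve at 30 to 70% activation, or poor fit; inactive = the rest.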 A value given as a limit tells only on which side of the number the result lay.

This experiment has as its system SK-MEL-5 TRPM1 promoter luciferase reporter, 24 h. The experiment in a line: activation of TRPM1 promoter luciferase in melanoma cells – SK-MEL-5 cells, cherry-pick samples, dose response (AID 540258).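 Also: potency for activators that raise TRPM1 promoter luciferase signal.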
For the compound `O=C(Cc1ccccc1)Nc1nc(-c2cccs2)cs1`, the AC40 is 14.7 µM.
Take `Fc1ccc2nc(N3CCCC3)sc2c1`: the AC40 is 1.37 µM.
On to `Cc1cc(Cl)ccc1OCc1cn2cccnc2n1`, for which the AC40 was 1.41 µM.
In the case of `Nc1ccc2oc(-c3cccs3)nc2c1` it was 4.75 µM.
In the case of `CCCn1ncc2c(Nc3ccc(C)c(C)c3)ncnc21` it was 4.16 µM; in that of `Clc1ccc(-c2nc(C3CCCCC3)no2)cc1`, 1.23 µM; in that of `COc1ccc2c(c1)CC/C(=C\Nc1ccc3c(c1)OCO3)C2=O`, 2.3 µM.
Turning to `COC(=O)c1cc(-c2ccc(OC)cc2)n[nH]1`, the AC40 is 6.21 µM.
For `CC(C)CNC(=O)C1CCN(Cc2ccc(OCc3ccccc3)cc2)CC1` the value was 20.6 µM.
For `Cc1ccc(NC(=O)c2ccccc2Cl)c(Cl)c1` the value was 4.2 µM; for `COc1ccc2oc(=O)c(C(=O)N3CCN(c4ccccc4C)CC3)cc2c1`, 8.14 µM; for `CC1CCC(NC(=O)c2cc3ccccc3cc2O)CC1` (stereo not drawn), 2.64 µM.
For `COc1ccc(/C(N)=N/OC(=O)c2cccs2)cc1OC` the value was 6.41 µM.
Consider `CCc1ccc(NC(=O)c2n[nH]c(=O)c3ccccc23)cc1`, for which the AC40 is 1.1 µM.
With `CCc1ccc(C(=O)NC2CCCCC2)s1`, the AC40 is 2.95 µM.
For `CN1C(=O)NC(=O)C(C)(C2=CCCCC2)C1=O` (stereo not drawn) the value was > 35 µM (inactive); for `COc1ccc(-c2csc(-n3cccn3)n2)cc1`, 1.1 µM; for `O=c1oc(-c2cccs2)nc2sc3c(c12)CCCCC3`, 6.42 µM.
Consider `COc1cc(/C=C2\SC(=S)N(Nc3ccccc3)C2=O)ccc1O`, for which the AC40 is 3.01 µM.
For the compound `CC(C)(C)c1ccc(C(=O)NCc2ccccc2)cc1`, the AC40 was 8.05 µM.
On to `Clc1ccc(OCc2noc(-c3ccsc3)n2)c(Cl)c1`, for which the AC40 was 1.45 µM.
With `CC(C)Cc1cc(C(=O)Nc2ccc(Br)cc2)no1`, the AC40 was 1.8 µM.
In the case of `COc1cccc(C(=O)Nc2ccc(NC(=O)C3CC3)cn2)c1`, the AC40 was 3.48 µM.
In the case of `CCCNC(=O)Nc1nc2ccccc2s1` it was 0.513 µM.
Take `COc1ccc(-c2cc(=NCCC(=O)O)c3cc(C)ccc3o2)cc1`: the AC40 is 3.33 µM.
In the case of `COc1ccc(-c2cn3nc(C)c(C)nc3n2)cc1OC` it was 5.89 µM.
`COc1ccc(C(=O)CN2Cc3ccccc3C2=N)cc1`: the AC40 is 4.86 µM.
For `COC(=O)c1ccc(CSC2=NCCS2)cc1` the value was 3.38 µM; for `Cc1ccccc1-c1nc2cc(Cl)ccc2o1`, 8.56 µM; for `c1ccc(Nc2ccc(Nc3ccccc3)cc2)cc1`, 23.7 µM.
In the case of `CC(=O)Nc1c(-c2ccc3ccccc3c2)nc2ccccn12` it was 9.16 µM; in that of `COc1ccc(C(=O)Nc2ccc3c4c(cccc24)CC3)cc1`, 13.3 µM; in that of `O=C(CC(Nc1ccccc1)C(=O)O)c1ccccc1` (stereo not drawn), 0.749 µM.
Regarding `Cc1nc(N)sc1N=Nc1ccc(F)cc1`, the AC40 was 6.62 µM.
As for `CC(=O)N/C(N)=N/c1nc(=O)c2ccccc2s1`, the AC40 was 5.92 µM.
Turning to `Cc1cc(C(=O)Cn2nc(C(=O)O)c3ccccc3c2=O)c(C)n1CC(F)(F)F`, the AC40 is 9.43 µM.
For `O=C(Nc1ccccc1)O/N=C/c1ccc(F)cc1`, the AC40 was 0.883 µM.
For `CCc1cccc(NC(=O)c2sc3nc4n(c(=O)c3c2C)CCC4)c1` the value was 4.55 µM.
In the case of `Cc1cccc(Nc2nc3c(s2)CCCC3)c1` it was 0.993 µM; in that of `Cc1cccc(-c2nc(C#N)c(NC3CCCCC3)o2)c1`, 1.29 µM.
With `COc1cc(C=O)ccc1OCc1cccc(Br)c1`, the AC40 is 5.93 µM.
For `CCN(CC)C(=O)CCc1nnc(Cc2cccc(C(F)(F)F)c2)o1` the value was 1.95 µM; for `O=C(Nc1ccccc1)c1ccc(-c2ccccc2)s1`, 0.95 µM.
With `Clc1ccccc1OCc1nnc(-c2ccccc2Br)o1`, the AC40 is 2.43 µM.
With `O=C(Nc1ccc(Br)cc1F)c1ccc2nsnc2c1`, the AC40 was 1.31 µM.
For `CC(C)(C)C(=O)c1sc(Nc2ccccc2)nc1N`, the AC40 is 1.68 µM.
`CSc1ccc(CNc2ccc(Cl)cc2)cc1`: the AC40 is 5.67 µM.
For `O=C(O)c1ccc(/C=C/c2ccc3cccc(O)c3n2)cc1` the value was 0.876 µM; for `C=CCn1cnc2c(nnn2-c2ccc(C)c(C)c2)c1=O`, 11.9 µM.
Consider `Cc1ccc(/C=N/N2C(=O)c3ccccc3NC2c2ccc(C)cc2)cc1` (stereo not drawn), for which the AC40 is 20.5 µM.
For `COc1cccc(Nc2nc(-c3ccc(O)cc3)cs2)c1` the value was 3.18 µM; for `Cc1nn(CC(C)C)c(Cl)c1C(=O)NC1CCC(C)CC1` (stereo not drawn), 2.63 µM; for `N/C(=N\OC(=O)c1ccc2c(c1)OCO2)c1ccc(Cl)cc1`, 5.31 µM.
In the case of `O=C(N/N=C\c1cccc(Cl)c1)c1n[nH]c2c1CCCC2` it was 0.504 µM; in that of `COc1ccc2sc(NCc3ccccc3)nc2c1`, 1.98 µM; in that of `CC(=O)c1ccc(NC(=O)Nc2ccc3c(c2)nc(C)n3C)cc1`, 31.2 µM.
In the case of `CCCC(=O)N/C(N)=N/c1nc2ccccc2o1` it was 0.558 µM; in that of `COc1ccc(NC(C)=O)cc1S(=O)(=O)Nc1ccccc1C(=O)NCCc1ccccc1`, > 35 µM (inactive).
In the case of `CCS(=O)(=O)N1CCN(c2nc(-c3ccccc3)cs2)CC1`, the AC40 is 33.3 µM.
For `Cc1nnc(NC(=O)c2ccc(N3CCCC3=O)cc2)s1` the value was > 35 µM (inactive); for `O=C(Nc1ccc2ccccc2c1)c1cc(F)c(F)cc1Cl`, 1.86 µM; for `COc1cc2c(C)nc3c(cnn3-c3ccccc3)c2cc1OC`, 2.87 µM.
In the case of `Cc1ccsc1C(=O)OCc1nnc(-c2ccccc2)o1` it was 7.44 µM; in that of `COc1ccc(C)c2sc(=NC(=O)c3ccc(C(C)=O)cc3)n(C)c12`, 0.119 µM; in that of `Cc1nc2cc3nc(C)sc3cc2s1`, 7.83 µM.
`CCn1c(C)nc2cc(C(=O)N/N=C(\C)c3ccccc3O)ccc21`: the AC40 was 3.48 µM.
With `Brc1ccccc1-n1nnc(-c2nccs2)n1`, the AC40 is 2.52 µM.
In the case of `Cc1ccc(-c2nn(-c3ccccc3)cc2/C=N/O)cc1` it was 10.2 µM.
Consider `Cc1ccsc1/C=N/NC(=O)Nc1ccccc1`, for which the AC40 was 1.07 µM.
In the case of `c1ccc(-c2cnnc(N3CCCCC3)n2)cc1` it was 0.992 µM; in that of `Clc1ccccc1/C=C/c1nc(-c2cccnc2)no1`, 1.2 µM; in that of `Clc1ccc(-c2cn3c(n2)CCC3)cc1`, > 35 µM (inactive).
For `CC(=O)c1sc(NC(=O)c2ccccc2F)nc1-c1ccccc1` the value was 3.02 µM; for `CC(=O)c1ccc(Nc2ccc(-c3ccccc3C)nn2)cc1`, 4.2 µM; for `CCc1nc2oc3ccccc3c(=O)c2cc1C(=O)OC`, 5.7 µM.
As to `CCc1cccc2c(C(=O)CN3C(=O)NC4(CCCCCC4)C3=O)c[nH]c12`, the AC40 was > 35 µM (inactive).
Turning to `COC(=O)c1ccc2[nH]c(C3(O)CCCCC3)c(C)c2c1`, the AC40 is 10.3 µM.
In the case of `Cc1nc(-c2ccc(NC(=O)c3ccccc3Br)cc2)cs1` it was 1.57 µM; in that of `C(=N\Nc1nc2ccccc2[nH]1)/c1c[nH]c2ccccc12`, 5.09 µM.
In the case of `O=C(Nc1ccc(O)cc1)c1c(O)c2c([nH]c1=O)CCCC2` it was 0.664 µM; in that of `CC1CCc2sc(C(=O)Nc3ccc(C(N)=O)cc3)cc2C1` (stereo not drawn), 15.4 µM; in that of `Cn1cccc1C(=O)C(=O)Nc1ccc(F)c(F)c1`, 0.855 µM.
For `CCCc1nc2ccc(NC(C)=O)cc2c(=O)n1Cc1ccc(Cl)cc1` the value was 2.92 µM; for `CC(C)(C)C(=O)c1cnc(Nc2ccccc2Cl)s1`, 0.832 µM; for `COc1ccc(NC(=O)Nc2ccc(Br)cn2)cc1`, 3.15 µM.
On to `COc1ccc(/C=N/Nc2snc(SC)c2C#N)cc1OC`, for which the AC40 is 4.29 µM.
For `Nc1ccc(C#Cc2ccc3c(=O)c4ccccc4oc3c2)cc1` the value was 4.44 µM; for `O=C(CCCc1ccccc1)c1ccccc1`, 0.326 µM; for `COc1ccc(C(=O)c2c[nH]c3ccccc23)cc1`, 2.64 µM.
With `CCCCNc1c(-c2ccc(-c3cccc(Cl)c3)cc2)nc2ccccn12`, the AC40 is 5.54 µM.
On to `CN1CCSc2ccc(C(=O)Nc3cc(F)ccc3F)cc21`, for which the AC40 is 0.465 µM.
With `c1ccc2c(Nc3nnc(-c4ccncc4)s3)cccc2c1`, the AC40 was 4.9 µM.
In the case of `CC(=O)c1ccc(N2Cc3ccccc3C2=NC(=O)c2cccs2)cc1`, the AC40 is 24.6 µM.
With `Cc1ccc2cc(NC(=O)c3ccccc3C)ccc2n1`, the AC40 was 1.69 µM.
For `Cc1ccc(Nc2cc(C)c3c(O)cccc3n2)cc1C` the value was 3.4 µM; for `c1ccc(-c2ccc3sccc3n2)cc1`, 1.52 µM; for `c1ccc(-c2noc(COc3ccc4c(c3)OCO4)n2)cc1`, 2.25 µM.
For `COc1c(C)cccc1C(=O)Nc1ccc(N2CCN(S(C)(=O)=O)CC2)cc1` the value was 4.98 µM; for `COc1ccc2c(c1)oc(=O)c1cc(OC)ccc12`, 3.88 µM.
For `Clc1ccc(-n2nnc(-c3ncc[nH]3)n2)cc1Cl`, the AC40 was 7.37 µM.
For `COc1ccccc1N1CCN(C2=Nc3cccc4cccc2c34)CC1` the value was 3 µM; for `Cc1cccc(C(=O)Oc2ccc(/C=N/O)cc2)c1`, 2.74 µM; for `CC(C)c1ccc(CNc2ncc(Br)cn2)cc1`, 3.76 µM.
Take `CN(C)c1ccc(CSc2ccccc2)cc1`: the AC40 was 1.83 µM.
In the case of `CC1(C)CC(=O)c2c(O)cc(OCc3ccc(Br)cc3)cc2O1` it was 1.33 µM; in that of `Cc1ccc(-c2noc(C3CCCCC3)n2)cc1`, 1.68 µM.
Take `CCN(CC)CC(=O)Nc1scc2c1c(=O)oc1ccccc12`: the AC40 is 6.27 µM.
For `Nc1c(-c2ccc(Cl)cc2)cnn1-c1ccccc1` the value was 1.84 µM; for `CCCc1cc2c(=O)c(-c3ccccn3)coc2cc1OC`, 1.81 µM.
In the case of `COc1ccc(OCc2cc(C(=O)NC(C)c3cnn(C)c3)no2)c(Cl)c1` (stereo not drawn) it was 12.3 µM.
Consider `CC(C)C[C@@H](CSc1ccccc1)N1CCN(CC(C)C)CCC1=O`, for which the AC40 was 4.58 µM.
`O=c1c2ccccc2oc2c1ccc1ccccc12`: the AC40 was 10.5 µM.
For the compound `COc1ccc(/C=C2\SC(=O)N(CCNC(=O)C3CC4C=CC3C4)C2=O)cc1` (stereo not drawn), the AC40 was 1.39 µM.
